The text below walks through data of article PMC7287882, “Dual miRNases for Triple Incision of miRNA Target: Design Concept and Catalytic Performance” (Molecules, 2020).

Assay [1] deals with miR-17. The assay is described as follows: Gel-retardation assay, hybridization with miR-17. It is filed as binding. The note with it: 50 mM Tris-HCl pH 7.0, 200 mM KCl, 1 mM EDTA, 37 °C, 45 min, mean of 3. The source says: (§1) We carried out a comparative analysis of the hybridization properties of the developed DCs with the corresponding SCs, which were the products of the first stage of the DCs synthesis. As discussed above, each SC consisted of the corresponding oligonucleotide A, which was complementary to the 5′-region of the matching miRNA target, and the catalytic peptide [LRLRG]2, attached to the 5′-end of this oligonucleotide via a thiohexyl linker (linker 2). […] Indeed, the level of binding of DCs to their miRNA targets reached 96, 90, 75, 55% at equimolar concentration (1 μM), and 99, 96, 92 and 69% at 5-fold excess of DCs over miR-17, miR-18a, miR-21 and miR-155, respectively (Figure 2). […]
(§2) The reaction mixture (4 µL) containing 50 mM Tris-HCl, pH 7.0, 200 mM KCl and 1 mM EDTA, 100 cpm (Cherenkov’s counting) of [^32P]-miRNA, 1 μM unlabeled miRNA, a conjugate at a concentration ranging from 0.1 to 10 μM was incubated at 37 °C for 45 min and quenched by adding of a loading buffer (20% ficoll, 0.025% bromophenol blue, 0.025% xylene cyanol). […] Formation of the complex miRNA/conjugate was analyzed by electrophoresis in 15% native PAAG at 4 °C. The gels were analyzed using Molecular Imager FX. The extent of binding of conjugate to miRNA was determined as a ratio of radioactivity measured in the complex to the total radioactivity applied onto the gel lane.

Assay [2] has as its system miR-17. The assay is described as follows: Ribonuclease activity assay at different concentrations of KCl. It is filed as biochemical. The note with it: miRNA 1 µM, DC 20 µM, 37 °C, 48 h; for Cleavage: 20 mM Tris-HCl pH 7.8, 8 mM MgCl2, 1 mM DTT, 0.02 mg/mL BSA, mean ± s.e. On the procedure: Potassium ions play an important role in the regulation of cell homeostasis by maintaining the membrane potential, cell volume and pH, and may also have an influence on the performance of artificial ribonucleases. […] In order to understand the effect of K^+ ions on the efficiency of miRNA cleavage by DCs, miR-17 was incubated with the matching DC in the buffer containing 50 mM Tris-HCl, pH 7.0, 1 mM DTT, 0.02 mg/mL BSA and different K^+ concentration varied from 0 to 400 mM. […] In the absence of potassium and at a concentration of more than 200 mM, the efficiency of miRNA cleavage was 2-fold reduced.
Reaction with different concentration of KCl was performed in reaction mixtures (8 µL) containing 320 cpm (Cherenkov’s counting) of [^32P]-miR-17, 1 μM unlabeled miRNA, 20 µM of miRNA-17-DC in buffers contained 20 mM Tris-HCl, pH 7.8, 8 mM MgCl2, 1 mM DTT, 0.02 mg/mL BSA, and KCl at concentration 0, 40, 100, 200 or 400 mM at 37 °C for 48 h. RNA cleavage products were collected and analyzed as described above.

The subject of a further assay is miR-155. Put plainly: Gel-retardation assay, hybridization with miR-155. It is filed as binding. The note with it: 37 °C, 45 min, mean of 3.
From the text: as §1, §2

On to “CTACCTGC–linker 1–[GRLRL]2–linker 2–AAGCACTTTG [miRNA-17-DC, Dual oligonucleotide-peptide conjugate targeted to miR-17: catalytic peptide [LRLRG]2 between two 2-aminoadenine-containing oligodeoxyribonucleotides]”, for which the “level of binding of DC to miRNA target” value with miR-17 [1] (5-fold excess of DC over miRNA (1 µM)) was 99%; in the assay with miR-17 [1] (equimolar, DC 1 µM : miRNA 1 µM, 15% native PAAG), 96%. Besides, the Cleavage in the assay with miR-17 [2] (K+ 0 mM) came out at 13.2±5.0%; with miR-17 [2] (K+ 40 mM) it was 22.5±4.3%; with miR-17 [2] (K+ 100 mM), 26.4±2.0%; in the assay with miR-17 [2] (K+ 200 mM), 13.7±3.5%; in the assay with miR-17 [2] (K+ 400 mM) it was 14.1±3.8%. Moreover, the “most potent degradation of miRNA-target” value with miR-17 [2] (at 40–100 mM KCl) is on record as “approximately 25%”.

With “ACCCCTAT–linker 1–[GRLRL]2–linker 2–TTAGCATTAA [miRNA-155-DC, Dual oligonucleotide-peptide conjugate targeted to miR-155: catalytic peptide [LRLRG]2 between two 2-aminoadenine-containing oligodeoxyribonucleotides]”, the “level of binding of DC to miRNA target” value in the assay with miR-155 (5-fold excess of DC over miRNA (1 µM), same buffer) is listed as 69%; in the assay on miR-155 (equimolar, DC 1 µM : miRNA 1 µM, 50 mM Tris-HCl pH 7.0, 200 mM KCl, 1 mM EDTA), 55%.
